In PubChem BioAssay AID2769 (The Scripps Research Institute Molecular Screening Center, 2010):

Target: VIM-2 metallo-beta-lactamase (Pseudomonas aeruginosa) (UniProt Q9K2N0)
Assay: VIM-2 metallo-beta-lactamase inhibitor potency, late-stage follow-up, biochemical, epi-absorbance, dose response (AID 2769)
Settings: purified VIM-2, nitrocefin absorbance hydrolysis

`O=C(O)c1cc[c]([Hg][Cl])cc1` was tested, and the IC50 was 2.59 µM.

With `O=C(O)c1ccc[c]([Hg+])c1` the IC50 was 0.817 µM.

`[Hg+][c]1ccccc1` gave an IC50 of 1 µM.

`CC(=O)Nc1cc[c]([Hg+])cc1` was tested, and the IC50 was 2.58 µM.

`Cc1cc[c]([Hg+])cc1` was tested, and the IC50 was 0.814 µM.
